Among the data in patent US20240066136A1, “MODIFIED PROTEINS AND PROTEIN DEGRADERS” (Cullgen (Shanghai), Inc., priority 2020, published 2024) are Kd values, retold here.

pKd: −log10 of the molar value. Ends that are not written are not given here.

The term pKd denotes the Kd on a negative log10 scale, so that one unit is a factor of ten.

For one experiment, the target named is Human DDB1 (Homo sapiens (Human), UniProt Q16531). The experiment can be described thus: Surface plasmon resonance (SPR) binding assay to immobilized His-DDB1.
Chain of Human DDB1 (Q16531 whole entry): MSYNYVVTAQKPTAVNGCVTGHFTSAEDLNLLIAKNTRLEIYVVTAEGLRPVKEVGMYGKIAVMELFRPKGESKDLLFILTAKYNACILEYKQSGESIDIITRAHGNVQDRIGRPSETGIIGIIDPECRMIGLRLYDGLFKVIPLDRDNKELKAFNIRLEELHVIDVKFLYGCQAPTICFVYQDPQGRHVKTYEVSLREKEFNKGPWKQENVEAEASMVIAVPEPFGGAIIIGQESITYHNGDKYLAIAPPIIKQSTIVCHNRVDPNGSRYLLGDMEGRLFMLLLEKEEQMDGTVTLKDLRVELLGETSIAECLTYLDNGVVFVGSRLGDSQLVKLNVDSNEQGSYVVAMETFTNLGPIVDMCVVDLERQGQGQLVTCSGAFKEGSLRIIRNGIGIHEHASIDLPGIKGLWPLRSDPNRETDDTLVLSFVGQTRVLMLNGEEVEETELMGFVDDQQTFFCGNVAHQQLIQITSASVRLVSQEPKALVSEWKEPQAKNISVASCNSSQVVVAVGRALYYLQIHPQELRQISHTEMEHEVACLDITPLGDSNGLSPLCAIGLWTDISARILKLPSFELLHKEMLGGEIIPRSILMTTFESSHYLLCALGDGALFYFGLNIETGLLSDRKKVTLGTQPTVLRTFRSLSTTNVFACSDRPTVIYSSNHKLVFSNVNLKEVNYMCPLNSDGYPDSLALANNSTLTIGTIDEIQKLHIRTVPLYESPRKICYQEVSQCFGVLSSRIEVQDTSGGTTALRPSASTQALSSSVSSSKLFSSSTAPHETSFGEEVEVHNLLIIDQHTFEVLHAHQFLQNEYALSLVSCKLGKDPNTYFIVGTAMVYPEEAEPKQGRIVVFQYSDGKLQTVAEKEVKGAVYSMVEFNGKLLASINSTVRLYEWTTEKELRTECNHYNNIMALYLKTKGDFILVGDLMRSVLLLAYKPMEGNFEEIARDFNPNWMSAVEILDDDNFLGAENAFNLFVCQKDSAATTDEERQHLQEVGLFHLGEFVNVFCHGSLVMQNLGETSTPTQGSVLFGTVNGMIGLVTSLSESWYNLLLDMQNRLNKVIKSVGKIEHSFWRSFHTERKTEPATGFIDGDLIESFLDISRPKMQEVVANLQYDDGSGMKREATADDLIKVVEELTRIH
Conditions: not given
An outline of the steps:
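Baculovirus-expressed His-DDB1 (High5 cells) amine-coupled to 11,000–13,000 RU on a CM5 chip; compounds injected in multi-cycle format without regeneration at 25° C in HBS-EP pH 7.4 (120 s association/dissociation). Double-referenced, solvent-corrected data fit to steady-state affinity model for KD.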
(Surface plasmon resonance follows binding to a sensor surface in real time, without labels.)
With SRLNRRASF [Peptide 7], the negative logarithm of the Kd (pKd) was 4.00 to 4.70.

The experiment is the same for the next values; noted with them: SPR, DDB1 binding moieties with linkers and/or target protein binding moiety; read-out: Binding (Kd).
`CC(=O)Nc1cc(NCCOCCOCCOCCOCCNC(=O)C[C@@H]2N=C(c3ccc(Cl)cc3)c3c(sc(C)c3C)-n3c(C)nnc32)ccc1C(=O)Nc1nc(C)c([N+](=O)[O-])s1` [D-35, (S)-2-Acetamido-4-((1-(4-(4-chlorophenyl)-2,3,9-trimethyl-6H-thieno[3,2-f][1,2,4]triazolo[4,3-a][1,4]diazepin-6-yl)-2-oxo-6,9,12,15-tetraoxa-3-azaheptadecan-17-yl)amino)-N-(4-methyl-5-nitrothiazol-2-yl)benzamide]: the pKd was 4.00 to 4.70.

`CC(=O)Nc1cc(C(=O)NCCOCCOCCOCCN)ccc1C(=O)Nc1ncc([N+](=O)[O-])s1` [BL-6, 2-acetamido-N^4-(2-(2-(2-(2-aminoethoxy)ethoxy)ethoxy)ethyl)-N^1-(5-nitrothiazol-2-yl)terephthalamide]: the pKd was 4.00 to 4.70.

As to `CC(=O)Nc1cc(NCCOCCOCCNC(=O)CN2CCN(c3ccc(Nc4ncc5c(C)c(C(C)=O)c(=O)n(C6CCCC6)c5n4)nc3)CC2)ccc1C(=O)Nc1nc(C)c([N+](=O)[O-])s1` [D-45, 2-Acetamido-4-((2-(2-(2-(2-(4-(6-((6-acetyl-8-cyclopentyl-5-methyl-7-oxo-7,8-dihydropyrido[2,3-d]pyrimidin-2-yl)amino)pyridin-3-yl)piperazin-1-yl)acetamido)ethoxy)ethoxy)ethyl)amino)-N-(4-methyl-5-nitrothiazol-2-yl)benzamide], the negative-log Kd (pKd) was greater than 4.70.

As to `CC(=O)Nc1cc(NCCOCCNC(=O)CN2CCC(n3nc(N4CCCc5cc(-c6cnn(C)c6)c(C(F)F)cc54)c4c3CCN(C(C)=O)C4)CC2)ccc1C(=O)Nc1nc(C)c([N+](=O)[O-])s1` [D-7, 2-Acetamido-4-((2-(2-(2-(4-(5-acetyl-3-(7-(difluoromethyl)-6-(1-methyl-1H-pyrazol-4-yl)-3,4-dihydroquinolin-1 (2H)-yl)-4,5,6,7-tetrahydro-1H-pyrazolo[4,3-c]pyridin-1-yl)piperidin-1-yl)acetamido)ethoxy)ethyl)amino)-N-(4-methyl-5-nitrothiazol-2-yl)benzamide], the negative logarithm of the Kd (pKd) was 4.00 to 4.70.

As for `CC(=O)Nc1cc(NCCOCCOCCOCCN)ccc1C(=O)Nc1nc(C)c([N+](=O)[O-])s1` [BL-8, 2-Acetamido-4-((2-(2-(2-(2-aminoethoxy)ethoxy)ethoxy)ethyl)amino)-N-(4-methyl-5-nitrothiazol-2-yl)benzamide], the pKd is 4.00 to 4.70.

Still in this experiment, the particulars now being: SPR, steady state affinity model, 25° C.; read-out: Binding (DDB1 binder activities, Kd).
As to `CC(=O)Nc1ccccc1C(=O)Nc1ccncn1` [B-57, 2-acetamido-N-(pyrimidin-4-yl)benzamide], the pKd was 4.00 to 4.70.

Take `CC(=O)Nc1ccccc1C(=O)Nc1ccc(Br)cc1` [B-59, 2-Acetamido-N-(4-bromophenyl)benzamide]: the pKd was 4.00 to 4.70.

In the case of `CC(=O)Oc1cc(NC2CCOCC2)ccc1C(=O)Nc1ncc([N+](=O)[O-])s1` [B-96, 2-((5-Nitrothiazol-2-yl)carbamoyl)-5-((tetrahydro-2H-pyran-4-yl)amino)phenyl acetate], the pKd is 4.00 to 4.70.

Take `CNC(=O)CCCNC(=O)c1nnn2c1CN(C(=O)OCCCCCC(C)C)CC2` [B-144, 6-methylheptyl3-((4-(methylamino)-4-oxobutyl)carbamoyl)-6,7-dihydro-[1,2,3]triazolo[1,5-a]pyrazine-5(4H)-carboxylate]: the pKd was 4.00 to 4.70.

`CCCCNc1ccc(C(=O)Nc2ncc(C(F)(F)F)s2)c(-c2ccccc2)c1` [B-118, 5-(Butylamino)-N-(5-(trifluoromethyl)thiazol-2-yl)-[1,1′-biphenyl]-2-carboxamide]: the negative logarithm of the Kd (pKd) was 4.00 to 4.70.

With `CCNc1ccccc1C(=O)Nc1ncc([N+](=O)[O-])s1` [B-6], the negative logarithm of the Kd (pKd) was greater than 4.70.

As for `CCCCNc1ccc(C(=O)Nc2ncc([N+](=O)[O-])s2)c(OCC)c1` [B-160, 4-(Butylamino)-2-ethoxy-N-(5-nitrothiazol-2-yl)benzamide], the negative-log Kd (pKd) was 4.00 to 4.70.

As to `CC(=O)Nc1ccccc1C(=O)Nc1ccc(Cl)cc1` [B-58, 2-Acetamido-N-(4-chlorophenyl)benzamide], the negative logarithm of the Kd (pKd) was 4.00 to 4.70.

For `CC(=O)Nc1ccccc1C(=O)Nc1ncc(-c2ccccc2)s1` [B-45, 2-acetamido-N-(5-phenylthiazol-2-yl)benzamide], the pKd is greater than 4.70.

For the molecule `CC(C)C(=O)NCCC1CN(Cc2cccc3[nH]ccc23)Cc2ccnn21` (stereo not shown) [B-142, N-(2-(5-((1H-indol-4-yl)methyl)-4,5,6,7-tetrahydropyrazolo[1,5-a]pyrazin-7-yl)ethyl)isobutyramide], the pKd is 4.00 to 4.70.

On to `CCCNC(=O)c1ccc(OC(C)=O)c(C(=O)Nc2ncc([N+](=O)[O-])s2)c1` [B-13, 2-((5-Nitrothiazol-2-yl)carbamoyl)-4-(propylcarbamoyl)phenyl acetate], for which the negative logarithm of the Kd (pKd) was 4.00 to 4.70.

On to `O=C(O)CCc1ccccc1C(=O)Nc1ncc([N+](=O)[O-])s1` [B-88, 3-(2-((5-Nitrothiazol-2-yl)carbamoyl)phenyl)propanoic acid], for which the pKd is 4.00 to 4.70.

Consider `CCCCNc1ccc(C(=O)Nc2ncc([N+](=O)[O-])s2)c(-c2ccccc2)c1` [B-110, 5-(Butylamino)-N-(5-nitrothiazol-2-yl)-[1,1′-biphenyl]-2-carboxamide], for which the negative-log Kd (pKd) is greater than 4.70.

For the molecule `CC(=O)Nc1ccccc1C(=O)Nc1nc(C(F)(F)F)c([N+](=O)[O-])s1` [B-31, 2-Acetamido-N-(5-nitro-4-(trifluoromethyl)thiazol-2-yl)benzamide], the pKd was 4.00 to 4.70.

For `CCCC(=O)Nc1ccc(C(=O)Nc2ncc([N+](=O)[O-])s2)c(OC(C)=O)c1` [B-21, 5-Butyramido-2-((5-nitrothiazol-2-yl)carbamoyl)phenyl acetate], the pKd was less than 4.00.

As to `COC(=O)Oc1ccccc1C(=O)Nc1ncc([N+](=O)[O-])s1` [B-78, Methyl (2-((5-nitrothiazol-2-yl)carbamoyl)phenyl) carbonate], the pKd was 4.00 to 4.70.

Regarding `CCCCNc1ccc(C(=O)Nc2nc(-c3ccccc3)c([N+](=O)[O-])s2)c(-c2ccccc2)c1` [B-131, 5-(Butylamino)-N-(5-nitro-4-phenylthiazol-2-yl)-[1,1′-biphenyl]-2-carboxamide], the negative-log Kd (pKd) is greater than 4.70.

As to `Cc1cc(NC(C)C)ccc1C(=O)Nc1ncc([N+](=O)[O-])s1` [B-161, 4-(Isopropylamino)-2-methyl-N-(5-nitrothiazol-2-yl)benzamide], the negative logarithm of the Kd (pKd) was less than 4.00.

`O=C(Nc1ncc([N+](=O)[O-])s1)c1ccccc1OC(F)(F)F` [B-77, N-(5-nitrothiazol-2-yl)-2-(trifluoromethoxy)benzamide]: the negative logarithm of the Kd (pKd) is less than 4.00.

Consider `CC(=O)Nc1ccccc1C(=O)Nc1nc(C2CC2)c([N+](=O)[O-])s1` [B-32, 2-Acetamido-N-(4-cyclopropyl-5-nitrothiazol-2-yl)benzamide], for which the pKd was 4.00 to 4.70.

Regarding `CCCC(=O)Nc1cccc(OC(=O)CCC)c1C(=O)Nc1ncc([N+](=O)[O-])s1` [B-25, 3-Butyramido-2-((5-nitrothiazol-2-yl)carbamoyl)phenyl butyrate], the pKd was 4.00 to 4.70.

Turning to `CC(=O)Nc1ccccc1C(=O)Nc1ccc(C(C)C)s1` [B-129, 2-Acetamido-N-(5-isopropylthiophen-2-yl)benzamide], the negative-log Kd (pKd) is 4.00 to 4.70.

Turning to `CCCC(=O)Nc1ccc(OC(C)=O)c(C(=O)Nc2ncc([N+](=O)[O-])s2)c1` [B-22, 4-Butyramido-2-((5-nitrothiazol-2-yl)carbamoyl)phenyl acetate], the pKd was 4.00 to 4.70.

As for `CC(C)COc1ccccc1C(=O)N(C)c1ncc([N+](=O)[O-])s1` [B-103, 2-Isobutoxy-N-methyl-N-(5-nitrothiazol-2-yl)benzamide], the pKd is 4.00 to 4.70.

As to `CCCCNc1ccc(C(=O)Nc2nc(Br)c([N+](=O)[O-])s2)c(-c2ccccc2)c1` [B-113, N-(4-Bromo-5-nitrothiazol-2-yl)-5-(butylamino)-[1,1′-biphenyl]-2-carboxamide], the negative-log Kd (pKd) was 4.00 to 4.70.

Consider `O=C(Nc1ncc([N+](=O)[O-])s1)c1ccccc1C1CC1` [B-85, 2-cyclopropyl-N-(5-nitrothiazol-2-yl)benzamide], for which the negative-log Kd (pKd) is 4.00 to 4.70.

As for `CCCc1ccccc1C(=O)N(C)c1ncc([N+](=O)[O-])s1` [B-104, N-Methyl-N-(5-nitrothiazol-2-yl)-2-propylbenzamide], the pKd is 4.00 to 4.70.

For the molecule `CNC(=O)c1ccc(-c2cccc(O)c2)nc1NCC1CC1` [B-143, 2-((cyclopropylmethyl)amino)-6-(3-hydroxyphenyl)-N-methylnicotinamide], the negative-log Kd (pKd) is 4.00 to 4.70.

Take `CC(=O)Oc1ccccc1C(=O)Nc1nc(C)c([N+](=O)[O-])s1` [B-9, 2-((4-Methyl-5-nitrothiazol-2-yl)carbamoyl)phenyl acetate]: the negative-log Kd (pKd) is 4.00 to 4.70.

As for `CC(=O)Nc1ccccc1C(=O)Nc1ncc(C)s1` [B-42, 2-Acetamido-N-(5-methylthiazol-2-yl)benzamide], the pKd is 4.00 to 4.70.

Take `Cc1cc(C(C)C)ccc1C(=O)Nc1ncc([N+](=O)[O-])s1` [B-164, 4-Isopropyl-2-methyl-N-(5-nitrothiazol-2-yl)benzamide]: the pKd was less than 4.00.

Turning to `CC(=O)N(C)c1ccccc1C(=O)Nc1ncc([N+](=O)[O-])s1` [B-64, 2-(N-Methylacetamido)-N-(5-nitrothiazol-2-yl)benzamide], the pKd was 4.00 to 4.70.

With `CC(=O)Nc1ccccc1C(=O)Nc1ncc([N+](=O)[O-])s1` [B-4, 2-Acetamido-N-(5-nitrothiazol-2-yl)benzamide], the pKd was greater than 4.70.

Turning to `COc1ccc(C(=O)Nc2ncc([N+](=O)[O-])s2)c(C)c1` [B-156, 4-Methoxy-2-methyl-N-(5-nitrothiazol-2-yl)benzamide], the pKd was less than 4.00.

As to “2-Acetamido-3-butyramido-N-(5-nitrothiazol-2-yl)benzamide [B-146]”, the negative-log Kd (pKd) was 4.00 to 4.70.

`CCCCNc1ccc(C(=O)Nc2ncc([N+](=O)[O-])s2)c(C)c1` [B-165, 4-(Butylamino)-2-methyl-N-(5-nitrothiazol-2-yl)benzamide]: the pKd is 4.00 to 4.70.

For the molecule `O=C(Nc1ccccc1C(=O)Nc1ncc([N+](=O)[O-])s1)c1ccccc1` [B-63, 2-Benzamido-N-(5-nitrothiazol-2-yl)benzamide], the pKd is less than 4.00.
